Entries after “also recorded” stand apart in the source; their conditions may differ. Blank lines part the entries; values can stand above or below the molecule they belong to.
Tests used:
[1] = system: mechanical nociceptive threshold; test: Epinephrine-induced mechanical hyperalgesia, Randall-Selitto paw-withdrawal test (Example 1); conditions: intradermal, inhibitor 1 μg plus epinephrine 100 ng, male rats
[2] = system: ERK1/2; test: Epinephrine-stimulated ERK1/2 phosphorylation in cultured rat DRG neurons (Western analysis); format: cell-based; conditions: for effect on epinephrine-induced ERK phosphorylation: 1 μM epinephrine 5 min, ICI 118,551 100 nM, U0126 10 μM, H89 1 μM, calphostin C 1 μM
[3] = system: mechanical nociceptive threshold; test: Prostaglandin E2-induced hyperalgesia in male and female rats (Example 2); format: in vivo, rat
Source text: The nociceptive flexion reflex was quantified using the Randall-Selitto paw pressure device (Analgesymeter, Stoetling, Chicago, Ill., USA), which applies a linearly increasing mechanical force to the dorsum of the rat's hind paw. The mechanical nociceptive threshold was defined as the force in grams at which the rat withdrew its paw. The protocols for this procedure have been previously described (Taiwo et al., (1989) The contribution of training to sensitivity in the nociceptive paw-withdrawal test. Brain Res., 487:148-151). Rats were familiarized in the testing procedure, at 5-min intervals for a period of 1 h per day for 3 days in the week preceding the experiment, to decrease variance in nociceptive thresholds (Taiwo et al., (1989), supra). Baseline paw-withdrawal threshold was defined as the mean of six readings before test agents were injected. Each paw was treated as an independent measure (Taiwo et al., (1989), supra) and each experiment was performed on a separate group of rats. Each group of rats was treated with only one agonist and/or antagonist injected peripherally by the intradermal route. It has been shown in previous studies that these agents, which are injected using the protocol described, exert a peripheral rather than central action (Khasar et al., (1995), supra; and, Khasar et al., (1999b), supra). The dose-response relationship for the effect of epinephrine was determined over a dose range of 1 ng-1 μg. All behavioural testing was done between 10.00 and 16.00 h. The blocking agents, with and without epinephrine (Khasar et al., (1999b), supra) or prostaglandin E2 (PGE2) (Aley et al., (1998), supra; Aley & Levine, (1999), supra; and, Aley et al., (2000) Chronic hypersensitivity for inflammatory nociceptor sensitization mediated by the epsilon isozyme of protein kinase C. J. Neurosci., 20:4680-4685), were injected as described previously (Khasar et al., (1995), supra; and, Khasar et al., (1999b), supra). […]

[4] = system: mechanical nociceptive threshold; test: Epinephrine-induced hyperalgesia in gonad-intact and gonadectomized male and female rats (Example 2); conditions: inhibitor 1 μg, epinephrine 100 ng intradermal
Protocol: The nociceptive flexion reflex was quantified using the Randall-Selitto paw pressure device (Analgesymeter, Stoetling, Chicago, Ill., USA), which applies a linearly increasing mechanical force to the dorsum of the rat's hind paw. The mechanical nociceptive threshold was defined as the force in grams at which the rat withdrew its paw. […] Baseline paw-withdrawal threshold was defined as the mean of six readings before test agents were injected. […] Each group of rats was treated with only one agonist and/or antagonist injected peripherally by the intradermal route. […] All behavioural testing was done between 10.00 and 16.00 h. […] The protein kinase inhibitor was separated from the distilled water by drawing up a small air bubble (<1 μL) into the syringe after drawing up the protein kinase inhibitor but before drawing up the distilled water.
A stock solution of PGE2 (4 mg/mL) was made by dissolving it in 10% ethanol in normal saline; further dilution to 100 ng was made by addition of saline. Final concentration of ethanol was <10%. […] Stock solutions (1 μg/μL) of inhibitors were stored at −20° C. […] Inhibitors were injected at a concentration of 1 μg/2.5 μL.

[5] = system: Taxol-induced hyperalgesia; test: Taxol-induced painful peripheral neuropathy, Randall-Selitto paw-withdrawal test; format: in vivo, rat; conditions: male and female rats; normal approximately 110 grams
Source text: (§1) The role of Ras-MEK-ERK 1/2 cascade in painful peripheral neuropathy has been evaluated in three rodent models of common clinical conditions in which patients experience painful peripheral neuropathy. The three models are as follows: 1) Taxol® (a major cancer chemotherapy agent)-induced painful peripheral neuropathy (Dina, O. A., et al., (2001) Role of protein kinase C-epsilon and protein kinase A in a model of paclitaxel-induced painful peripheral neuropathy in the rat. Neuroscience 108:507-515); 2) vincristine (another cancer chemotherapy agent)-induced painful peripheral neuropathy (Aley, K. O., et al., (1996) Vincristine hyperalgesia in the rat: a possible modelfor painful vincristine neuropathy in humans. Neuroscience 73:259-265; Tanner, K. D., et al., (1998) Nociceptor hyper-responsiveness during vincristine-induced painful peripheral neuropathy in the rat. J. Neuroscience 18:6480-6491; Tanner, K. D., et al., (1998) Microtubule disorientation and axonal swelling in unmyelinated sensory axons during vincristine-induced painful neuropathy in rat. J. Comp. Neurol., 395:481-492; and, Tanner, K. D., et al., (2002) Altered temporal patterning of afferent activity in a rat model of vincristine-induced peripheral neuropathy (Submitted -Neuroscience).); and, 3) alcohol-induced painful peripheral neuropathy (Dina, O. A., et al., (2000) Key role for the epsilon isoform of protein kinase C in painful alcoholic neuropathy in the rat. J. Neurosci. 20:8614-8619). In all three models, inhibition of MEK by a MEK inhibitor, PD98509, produced either a moderate (Taxol and vincristine) or profound (alcohol) reversal of the painful peripheral neuropathy. In the third model, alcohol-induced painful peripheral neuropathy, a second inhibitor of the Ras-MEK-ERK 1/2 cascade, which was MEK inhibitor U0126, was also employed.
The pain threshold in normal male and female rats was approximately 110 grams, using the Randall-Selitto paw-withdrawal test (plotted as absolute change in nociceptive threshold). Following administration of Taxol, the threshold fell to approximately 70 grams.

[6] = system: alcohol-induced hyperalgesia; test: Alcohol-induced painful peripheral neuropathy, Randall-Selitto paw-withdrawal test; format: in vivo, rat
Source text: as §1
The pain threshold in normal rats was approximately 110 grams, using the Randall-Selitto paw-withdrawal threshold test (plotted as percentage change in nociceptive threshold). Following chronic consumption of a diet in which alcohol replaced calories, but not other nutrients, in the normal diet, the threshold fell to approximately 70 grams. […] See FIG. 13A, which illustrates results from female rats and FIG. 13B, which illustrates results from male rats.

[7] = system: mechanical nociceptive threshold; conditions: rat, in vivo; cited from earlier work
[8] = system: vincristine-induced hyperalgesia; test: Vincristine-induced painful peripheral neuropathy, Randall-Selitto paw-withdrawal test; format: in vivo, rat; conditions: male and female rats; normal approximately 110 grams
Source text: as §1
The pain threshold in normal male and female rats was approximately 110 grams, using the Randall-Selitto paw-withdrawal test (plotted as absolute change in nociceptive threshold). Following administration of vincristine, the threshold fell to approximately 65 grams.

Molecule: O=S(=O)(NCCNCC=Cc1ccc(Br)cc1)c1cccc2cnccc12 [H89, N-[2-(p-bromocinnamylamino)ethyl]-5-isoquinolinesulfonamide]
- effect on epinephrine-induced mechanical hyperalgesia [1]: did not block
- effect on epinephrine-induced ERK phosphorylation [2]: did not reduce; also recorded: did not block

Molecule: Cc1ccc(OCC(O)C(C)NC(C)C)c2c1CCC2 (stereo not drawn) [ICI 118,551]
- effect on epinephrine-induced ERK phosphorylation [2]: inhibited
- effect on basal ERK phosphorylation ([2]; unstimulated cultures): did not inhibit

Molecule: CNC(=N)NCCC[C@H](N)C(=O)O [L-NMA, NG-methyl-L-arginine]
- effect on prostaglandin E2-induced hyperalgesia ([3]; both sexes, gonad-intact, inhibitor 1 μg, PGE2 100 ng intradermal): significantly blocked; also recorded: inhibited to a similar degree
- effect on epinephrine-induced hyperalgesia ([4]; gonadectomized female rats): significantly antagonized
- effect on epinephrine-induced hyperalgesia ([4]; gonadectomized male rats): significantly antagonized
- effect on epinephrine-induced hyperalgesia ([4]; intact female rats): did not have a significant effect
- effect on epinephrine-induced hyperalgesia ([4]; intact male rats): significantly antagonized

- pain threshold following administration of Taxol [5]: approximately 70 grams
Molecule: CC(=O)O[C@H]1C(=O)[C@@]2(C)[C@H]([C@H](OC(=O)c3ccccc3)[C@]3(O)C[C@H](OC(=O)[C@H](O)[C@@H](NC(=O)c4ccccc4)c4ccccc4)C(C)=C1C3(C)C)[C@]1(OC(C)=O)CO[C@@H]1C[C@@H]2O [Taxol]

- threshold following chronic consumption of alcohol diet ([6]; female rats (FIG. 13A)): approximately 70 grams
- threshold following chronic consumption of alcohol diet ([6]; male rats (FIG. 13B)): approximately 70 grams
- pain threshold following chronic consumption of alcohol diet ([6]; normal approximately 110 grams): approximately 70 grams
Molecule: CCO [alcohol]

Molecule: C=C(C)[C@@H]1CC=C(C(=O)O)CC1 [perillic acid]
- effect on epinephrine-induced mechanical hyperalgesia [1]: reduced

Molecule: Cc1ccc(N(CC2=NCCN2)c2cccc(O)c2)cc1 [phentolamine]
- effect on epinephrine hyperalgesia in the rat (previously demonstrated) [7]: not

Molecule: CC(C)NCC(O)COc1cccc2ccccc12 (stereo not drawn) [propranolol]
- effect on epinephrine-induced hyperalgesia ([4]; intact female rats): inhibited
- effect on epinephrine-induced hyperalgesia ([4]; intact male rats): inhibited
- effect on epinephrine hyperalgesia in the rat (previously demonstrated) [7]: significantly attenuated

Molecule: CCCCC[C@H](O)/C=C/[C@H]1[C@H](O)CC(=O)[C@@H]1C/C=C\CCCC(=O)O [prostaglandin E2]
- magnitude of hyperalgesia in intact female rats vs males ([3]; PGE2 100 ng): greater

- pain threshold following administration of vincristine [8]: approximately 65 grams
Molecule: CC[C@]1(O)C[C@H]2CN(CCc3c([nH]c4ccccc34)[C@@](C(=O)OC)(c3cc4c(cc3OC)N(C=O)[C@H]3[C@@](O)(C(=O)OC)[C@H](OC(C)=O)[C@]5(CC)C=CCN6CC[C@]43[C@@H]65)C2)C1 [vincristine]

Molecule: calphostin C
- effect on epinephrine-induced ERK phosphorylation [2]: did not reduce

Molecule: pertussis toxin
- effect on epinephrine-induced mechanical hyperalgesia [1]: reduced
- effect on epinephrine-induced phosphorylation of ERK1/2 ([2]; pertussis toxin or 1 μM FTase I for 16 hr, then 1 μM epinephrine): prevented; also recorded: inhibit

B1: NGF: mouse 2.5 S nerve growth factor, positive control for ERK1/2 phosphorylation (protein, UniProt P01139 122-241, looked up)
Beta-nerve growth factor: SSTHPVFHMGEFSVCDSVSVWVGDKTTATDIKGKEVTVLAEVNINNSVFRQYFFETKCRASNPVESGCRGIDSKHWNSYCTTTHTFVKALTTDEKQAAWRFIRIDTACVCVLSRKATRRG
modifications: Beta-nerve growth factor
notes: mouse 2.5 S nerve growth factor, positive control for ERK1/2 phosphorylation
- ERK1/2 phosphorylation (representative Western blot) ([2]; epinephrine for indicated times, NGF 50 ng/ml 5 min): stimulation

From patent US20030008807A1, “Novel signaling pathway for the production of inflammatory pain and neuropathy” (The Regents of the University of California, priority 2001, published 2003)
